# Data from US9611502B2, “Method for simultaneously measuring activity of various enzymes by using multi-wavelength absorption single channel” (Chongqing Medical University, priority 2012, dated 2017).
# What was measured:
# [1] = molecular target: T1, lactic acid dehydrogenase (LDH) (Oryctolagus cuniculus, UniProt P13491); assay: LDH kinetics and competitive inhibition by 4-nitroaniline (simultaneous GGT/LDH assay); type: biochemical, rabbit
# T1 construct: purchased Shanghai Shangon NB0642
# [2] = molecular target: T2, calf intestinal alkaline phosphatase (CIAP) (Bos taurus, UniProt P19111)
# [3] = tested on: γ-glutamyltransferase (GGT); conditions: preset for data processing; cited from earlier work
# [4] = Specific activity of penicillin G-labeled β-D-galactosidase after labeling; type: biochemical; conditions: 50 mmol/L Tris-HCl pH 7.5
# Description: b) mixing 50 ul solution of the activated penicillin G with 0.50 ml of 0.44 mg β-D-galactosidase dissolved in the sodium phosphate buffer at pH 7.4, keeping the mixture at 4° C. for reaction for 120 min; the resulting mixture of the labeled β-D-galactosidase is passed through Sephadex G25 column (15 cm height and 10 mm inner diameter with a packed volume of 10 ml, equilibrated with 50 mmol/L Tris-HCl at pH 7.5) and the column is eluted with the same Tris-HCl buffer to monitor the absorbance at 280 nm; the first peak of the elution is the labeled β-D-galactosidase, with a total of 0.22 mg protein in 2.0 ml elution solution;
# c) determining the specific activity after labeling: in 50 mmol/L Tris-HCl at pH 7.5, the specific activity of the labeled β-D-galactosidase is about 30 μmol·(L·min·mg)^−1 on 4-nitrophenyl-β-D-galactoside, indicating the reservation of nearly 100% activity; meanwhile, the specific activity on 4-nitro-1-napthyl-β-D-galactoside in the same buffer, its specific activity is about 100 (L·min·mg)^−1, but just about 70% of that before modification;
# [5] = molecular target: T2, calf intestinal alkaline phosphatase (CIAP); design: purchased Sigma P0114; conditions: Blake et al 1982 method; cited from earlier work
# T2 sequence (P19111 20-506): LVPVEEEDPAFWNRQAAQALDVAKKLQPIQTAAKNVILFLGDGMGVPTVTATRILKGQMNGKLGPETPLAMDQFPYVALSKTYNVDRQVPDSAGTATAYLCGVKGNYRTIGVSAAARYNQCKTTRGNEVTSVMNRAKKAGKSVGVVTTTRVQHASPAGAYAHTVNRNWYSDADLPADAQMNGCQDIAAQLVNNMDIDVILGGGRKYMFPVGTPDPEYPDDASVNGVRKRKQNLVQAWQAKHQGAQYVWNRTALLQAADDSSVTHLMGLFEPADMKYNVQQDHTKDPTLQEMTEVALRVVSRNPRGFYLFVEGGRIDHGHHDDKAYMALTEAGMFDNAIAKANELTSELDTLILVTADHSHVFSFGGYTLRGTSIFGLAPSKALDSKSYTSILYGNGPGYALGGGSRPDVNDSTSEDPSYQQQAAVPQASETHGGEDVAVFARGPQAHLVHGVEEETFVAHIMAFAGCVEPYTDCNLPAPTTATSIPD
molecule,measurement,setting,value
Nc1ccc([N+](=O)[O-])cc1 [4-nitroaniline],Ki,[1],24 µM
"O=[N+]([O-])c1ccc(OP(=O)(O)O)c2ccccc12 [4NNPP, 4-nitronaphthylphosphate]",specific activity of CIAP relative to that on 4-nitrophenylphosphate,[2],about 40%
same,Michaelis constant of CIAP,[2]; 4NNPP as chromogenic substrate,about 10 μmol/L
"NC(=O)C1=CN([C@@H]2O[C@H](COP(=O)(O)OP(=O)(O)OC[C@H]3O[C@@H](n4cnc5c(N)ncnc54)[C@H](O)[C@@H]3O)[C@@H](O)[C@H]2O)C=CC1 [NADH, reduced form of nicotine adenine nucleotide]",Michaelis constant of LDH for NADH,"[1]; pyruvate 3.0 mmol/L, pH 7.0",0.040 mmol/L
N[C@@H](CCC(=O)Nc1ccc([N+](=O)[O-])cc1)C(=O)O [γ-glutamyl-(4-nitro)-aniline],Michaelis constant of GGT for substrate (preset),[3],1.00 mmol/L
labeled β-D-galactosidase: β-D-galactosidase (Sigma G4155) modified with activated penicillin G,reservation of activity after labeling (4-nitrophenyl-β-D-galactoside),[4],about 100%
same,specific activity on 4-nitro-1-napthyl-β-D-galactoside,[4],about 100 (L·min·mg)^−1
same,specific activity on 4-nitro-1-napthyl-β-D-galactoside relative to that before modification,[4],about 70%
same,specific activity on 4-nitrophenyl-β-D-galactoside,[4],about 30 μmol·(L·min·mg)^−1
phenolphthalein monophosphate,specific activity of CIAP relative to that on p-nitrophenylphosphate,[5],about 7%
